Data: PMC3257585 (Journal of Medicinal Chemistry, 2011)

Tests used:
PIM1 = PIM1 (Homo sapiens, UniProt P11309); test: Thermal stability shift assay; assay type: binding; settings: Tm shift assay
FLT3 = molecular target: T1, FLT3 (Homo sapiens, UniProt P36888); test: In vitro kinase selectivity panel; assay type: biochemical
T1 sequence (P36888 27-993): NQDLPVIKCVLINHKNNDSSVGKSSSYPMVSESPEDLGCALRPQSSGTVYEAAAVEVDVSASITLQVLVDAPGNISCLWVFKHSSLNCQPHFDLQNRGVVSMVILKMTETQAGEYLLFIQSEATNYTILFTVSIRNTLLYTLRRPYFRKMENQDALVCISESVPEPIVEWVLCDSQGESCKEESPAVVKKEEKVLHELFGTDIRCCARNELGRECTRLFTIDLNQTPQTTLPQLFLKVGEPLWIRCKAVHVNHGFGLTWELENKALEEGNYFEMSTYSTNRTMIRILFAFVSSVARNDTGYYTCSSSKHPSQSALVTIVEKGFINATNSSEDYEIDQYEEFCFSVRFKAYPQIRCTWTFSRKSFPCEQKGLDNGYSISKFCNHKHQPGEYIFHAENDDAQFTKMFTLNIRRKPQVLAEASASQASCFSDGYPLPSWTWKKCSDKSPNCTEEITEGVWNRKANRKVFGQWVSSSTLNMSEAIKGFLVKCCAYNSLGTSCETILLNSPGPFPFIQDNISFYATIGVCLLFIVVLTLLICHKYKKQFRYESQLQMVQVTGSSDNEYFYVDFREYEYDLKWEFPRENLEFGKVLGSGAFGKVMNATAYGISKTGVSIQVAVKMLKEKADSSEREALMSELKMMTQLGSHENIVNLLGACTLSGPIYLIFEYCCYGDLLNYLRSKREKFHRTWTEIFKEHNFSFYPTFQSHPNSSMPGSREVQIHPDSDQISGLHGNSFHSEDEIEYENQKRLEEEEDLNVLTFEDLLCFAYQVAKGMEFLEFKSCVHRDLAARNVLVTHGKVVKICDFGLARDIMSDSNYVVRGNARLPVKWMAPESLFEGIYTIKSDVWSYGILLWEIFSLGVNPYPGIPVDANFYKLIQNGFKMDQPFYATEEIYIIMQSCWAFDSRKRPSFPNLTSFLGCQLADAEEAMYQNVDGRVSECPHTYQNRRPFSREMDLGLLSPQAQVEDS

cKIT = cKIT (Homo sapiens, UniProt P10721); test: In vitro kinase selectivity panel; assay type: biochemical
PDGFRa = PDGFRa (Homo sapiens, UniProt P16234); test: In vitro kinase selectivity panel; assay type: biochemical
HER4 = HER4 (Homo sapiens, UniProt Q15303); test: In vitro kinase selectivity panel; assay type: biochemical
PKA = PKA (Homo sapiens, UniProt P17612); test: In vitro kinase selectivity panel; assay type: biochemical
PDK1v2 = molecular target: T2, PDK1v2 (Homo sapiens, UniProt O15530); test: In vitro kinase selectivity panel; assay type: biochemical
T2 sequence (O15530 1-556): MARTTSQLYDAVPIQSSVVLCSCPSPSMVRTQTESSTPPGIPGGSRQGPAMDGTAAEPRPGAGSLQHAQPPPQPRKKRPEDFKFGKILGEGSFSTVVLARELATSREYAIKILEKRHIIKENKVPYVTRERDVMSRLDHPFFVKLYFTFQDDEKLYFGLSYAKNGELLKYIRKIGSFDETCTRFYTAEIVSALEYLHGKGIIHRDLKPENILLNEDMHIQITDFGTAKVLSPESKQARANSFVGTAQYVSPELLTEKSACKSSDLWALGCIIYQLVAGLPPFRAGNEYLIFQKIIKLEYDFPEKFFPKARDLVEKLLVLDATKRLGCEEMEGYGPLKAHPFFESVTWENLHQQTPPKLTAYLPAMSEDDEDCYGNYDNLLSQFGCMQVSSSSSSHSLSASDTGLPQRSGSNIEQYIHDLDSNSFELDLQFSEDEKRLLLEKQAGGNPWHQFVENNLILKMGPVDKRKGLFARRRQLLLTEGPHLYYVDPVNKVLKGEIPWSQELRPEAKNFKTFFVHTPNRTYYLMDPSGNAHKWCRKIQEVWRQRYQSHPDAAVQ

CaMK2 = CaMK2 (Homo sapiens, UniProt Q13555); test: In vitro kinase selectivity panel; assay type: biochemical
[1] = system: phosphorylation of 4E-BP1; test: Western blot of 4E-BP1 phosphorylation in MV4; assay type: cell-based, human; settings: MV4;11 cells, 0–10 μM
BTKv2 = BTKv2 (Homo sapiens, UniProt Q06187); test: In vitro kinase selectivity panel; assay type: biochemical
Sequence of BTKv2 (Q06187 whole entry): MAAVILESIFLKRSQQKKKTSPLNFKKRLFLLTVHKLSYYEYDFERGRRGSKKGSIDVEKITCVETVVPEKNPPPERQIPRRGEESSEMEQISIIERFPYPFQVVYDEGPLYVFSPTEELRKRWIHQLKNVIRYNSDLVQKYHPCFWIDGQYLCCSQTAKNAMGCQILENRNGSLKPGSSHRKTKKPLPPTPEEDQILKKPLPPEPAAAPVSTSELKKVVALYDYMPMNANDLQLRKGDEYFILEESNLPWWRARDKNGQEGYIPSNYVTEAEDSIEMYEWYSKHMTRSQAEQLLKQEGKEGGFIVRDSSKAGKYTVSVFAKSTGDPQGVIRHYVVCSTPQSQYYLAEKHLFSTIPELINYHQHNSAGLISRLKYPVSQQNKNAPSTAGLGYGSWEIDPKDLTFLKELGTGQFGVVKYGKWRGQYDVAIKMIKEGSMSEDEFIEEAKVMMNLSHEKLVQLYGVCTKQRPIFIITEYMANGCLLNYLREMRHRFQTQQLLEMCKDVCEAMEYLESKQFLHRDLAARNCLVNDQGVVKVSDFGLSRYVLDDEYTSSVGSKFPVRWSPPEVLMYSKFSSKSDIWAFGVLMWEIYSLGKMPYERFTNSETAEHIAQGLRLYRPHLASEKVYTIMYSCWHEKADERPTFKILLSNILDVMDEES

Sequence of PIM1 (P11309 whole entry): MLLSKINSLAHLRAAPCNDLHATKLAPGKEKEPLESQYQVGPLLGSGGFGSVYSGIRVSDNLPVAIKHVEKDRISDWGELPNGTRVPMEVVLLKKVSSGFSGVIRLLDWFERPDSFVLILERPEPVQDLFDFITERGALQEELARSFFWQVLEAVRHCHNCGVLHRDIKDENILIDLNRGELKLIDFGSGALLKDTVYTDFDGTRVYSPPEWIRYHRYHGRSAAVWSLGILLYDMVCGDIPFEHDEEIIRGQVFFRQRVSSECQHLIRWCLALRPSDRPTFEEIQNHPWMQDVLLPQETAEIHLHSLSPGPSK
Sequence of cKIT (P10721 26-976): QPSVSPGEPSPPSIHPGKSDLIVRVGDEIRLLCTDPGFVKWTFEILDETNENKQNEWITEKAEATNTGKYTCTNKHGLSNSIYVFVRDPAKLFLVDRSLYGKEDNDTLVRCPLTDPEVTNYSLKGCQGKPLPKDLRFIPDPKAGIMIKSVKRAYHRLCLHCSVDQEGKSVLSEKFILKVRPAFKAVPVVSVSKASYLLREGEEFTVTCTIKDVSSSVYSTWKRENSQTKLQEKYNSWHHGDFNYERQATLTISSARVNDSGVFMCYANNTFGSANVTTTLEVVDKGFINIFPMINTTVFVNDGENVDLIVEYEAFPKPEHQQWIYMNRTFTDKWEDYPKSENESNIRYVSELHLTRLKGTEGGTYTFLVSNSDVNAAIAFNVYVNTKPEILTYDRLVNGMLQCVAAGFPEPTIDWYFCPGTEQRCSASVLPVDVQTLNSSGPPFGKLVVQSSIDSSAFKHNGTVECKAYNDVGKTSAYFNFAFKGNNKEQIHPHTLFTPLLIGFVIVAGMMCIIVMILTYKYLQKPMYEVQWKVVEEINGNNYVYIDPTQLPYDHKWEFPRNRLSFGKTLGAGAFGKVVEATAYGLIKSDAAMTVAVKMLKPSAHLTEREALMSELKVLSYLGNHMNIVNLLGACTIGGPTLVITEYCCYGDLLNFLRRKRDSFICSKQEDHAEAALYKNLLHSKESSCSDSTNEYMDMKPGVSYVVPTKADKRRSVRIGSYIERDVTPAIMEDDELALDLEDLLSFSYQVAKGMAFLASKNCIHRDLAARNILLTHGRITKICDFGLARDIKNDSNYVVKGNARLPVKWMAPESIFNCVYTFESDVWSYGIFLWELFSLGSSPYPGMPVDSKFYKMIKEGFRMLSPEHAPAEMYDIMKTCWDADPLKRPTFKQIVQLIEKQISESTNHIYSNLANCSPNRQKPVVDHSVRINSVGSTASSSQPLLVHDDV
Sequence of PDGFRa (P16234 24-1089): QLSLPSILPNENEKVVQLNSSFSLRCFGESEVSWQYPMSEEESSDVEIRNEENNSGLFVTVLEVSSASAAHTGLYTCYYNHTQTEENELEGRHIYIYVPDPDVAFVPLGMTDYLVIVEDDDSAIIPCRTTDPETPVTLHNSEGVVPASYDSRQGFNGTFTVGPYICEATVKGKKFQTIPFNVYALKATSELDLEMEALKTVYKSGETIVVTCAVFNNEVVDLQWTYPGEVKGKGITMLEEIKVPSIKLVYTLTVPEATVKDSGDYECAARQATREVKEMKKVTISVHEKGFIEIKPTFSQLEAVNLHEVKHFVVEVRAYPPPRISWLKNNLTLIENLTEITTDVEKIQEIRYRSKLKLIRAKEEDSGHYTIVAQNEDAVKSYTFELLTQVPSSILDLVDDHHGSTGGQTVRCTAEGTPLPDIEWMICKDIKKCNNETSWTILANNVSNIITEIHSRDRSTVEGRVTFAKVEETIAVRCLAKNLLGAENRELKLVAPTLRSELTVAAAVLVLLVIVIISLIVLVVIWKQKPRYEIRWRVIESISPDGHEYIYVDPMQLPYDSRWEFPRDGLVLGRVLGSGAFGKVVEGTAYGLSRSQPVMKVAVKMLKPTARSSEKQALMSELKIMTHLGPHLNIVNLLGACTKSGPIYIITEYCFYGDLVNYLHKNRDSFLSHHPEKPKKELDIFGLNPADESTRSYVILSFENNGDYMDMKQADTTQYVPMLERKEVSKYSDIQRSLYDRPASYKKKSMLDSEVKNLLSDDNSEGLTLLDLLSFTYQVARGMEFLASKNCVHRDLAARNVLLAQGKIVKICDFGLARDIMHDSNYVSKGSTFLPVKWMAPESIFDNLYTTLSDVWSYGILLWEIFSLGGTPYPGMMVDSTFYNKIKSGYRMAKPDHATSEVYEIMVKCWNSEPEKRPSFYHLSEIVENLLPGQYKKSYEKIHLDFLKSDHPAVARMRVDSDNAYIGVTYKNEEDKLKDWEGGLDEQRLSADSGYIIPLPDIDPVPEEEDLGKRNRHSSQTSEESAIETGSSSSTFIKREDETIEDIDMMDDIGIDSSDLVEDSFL
Sequence of CaMK2 (Q13555 whole entry): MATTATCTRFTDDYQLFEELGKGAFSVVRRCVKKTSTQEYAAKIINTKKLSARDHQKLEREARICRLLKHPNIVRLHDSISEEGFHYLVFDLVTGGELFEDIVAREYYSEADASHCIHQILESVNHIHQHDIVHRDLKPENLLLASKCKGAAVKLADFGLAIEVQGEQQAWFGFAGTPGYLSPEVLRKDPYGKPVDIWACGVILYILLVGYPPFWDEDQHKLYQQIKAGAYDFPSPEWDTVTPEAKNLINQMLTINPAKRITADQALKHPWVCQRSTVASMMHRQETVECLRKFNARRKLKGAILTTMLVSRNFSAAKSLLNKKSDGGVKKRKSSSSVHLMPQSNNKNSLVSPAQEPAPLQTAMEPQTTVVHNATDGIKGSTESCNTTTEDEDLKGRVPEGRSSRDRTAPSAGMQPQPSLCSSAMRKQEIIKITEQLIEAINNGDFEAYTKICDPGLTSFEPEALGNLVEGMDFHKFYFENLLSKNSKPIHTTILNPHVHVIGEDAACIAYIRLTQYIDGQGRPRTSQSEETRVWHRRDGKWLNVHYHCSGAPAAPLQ
Sequence of HER4 (Q15303 26-1308): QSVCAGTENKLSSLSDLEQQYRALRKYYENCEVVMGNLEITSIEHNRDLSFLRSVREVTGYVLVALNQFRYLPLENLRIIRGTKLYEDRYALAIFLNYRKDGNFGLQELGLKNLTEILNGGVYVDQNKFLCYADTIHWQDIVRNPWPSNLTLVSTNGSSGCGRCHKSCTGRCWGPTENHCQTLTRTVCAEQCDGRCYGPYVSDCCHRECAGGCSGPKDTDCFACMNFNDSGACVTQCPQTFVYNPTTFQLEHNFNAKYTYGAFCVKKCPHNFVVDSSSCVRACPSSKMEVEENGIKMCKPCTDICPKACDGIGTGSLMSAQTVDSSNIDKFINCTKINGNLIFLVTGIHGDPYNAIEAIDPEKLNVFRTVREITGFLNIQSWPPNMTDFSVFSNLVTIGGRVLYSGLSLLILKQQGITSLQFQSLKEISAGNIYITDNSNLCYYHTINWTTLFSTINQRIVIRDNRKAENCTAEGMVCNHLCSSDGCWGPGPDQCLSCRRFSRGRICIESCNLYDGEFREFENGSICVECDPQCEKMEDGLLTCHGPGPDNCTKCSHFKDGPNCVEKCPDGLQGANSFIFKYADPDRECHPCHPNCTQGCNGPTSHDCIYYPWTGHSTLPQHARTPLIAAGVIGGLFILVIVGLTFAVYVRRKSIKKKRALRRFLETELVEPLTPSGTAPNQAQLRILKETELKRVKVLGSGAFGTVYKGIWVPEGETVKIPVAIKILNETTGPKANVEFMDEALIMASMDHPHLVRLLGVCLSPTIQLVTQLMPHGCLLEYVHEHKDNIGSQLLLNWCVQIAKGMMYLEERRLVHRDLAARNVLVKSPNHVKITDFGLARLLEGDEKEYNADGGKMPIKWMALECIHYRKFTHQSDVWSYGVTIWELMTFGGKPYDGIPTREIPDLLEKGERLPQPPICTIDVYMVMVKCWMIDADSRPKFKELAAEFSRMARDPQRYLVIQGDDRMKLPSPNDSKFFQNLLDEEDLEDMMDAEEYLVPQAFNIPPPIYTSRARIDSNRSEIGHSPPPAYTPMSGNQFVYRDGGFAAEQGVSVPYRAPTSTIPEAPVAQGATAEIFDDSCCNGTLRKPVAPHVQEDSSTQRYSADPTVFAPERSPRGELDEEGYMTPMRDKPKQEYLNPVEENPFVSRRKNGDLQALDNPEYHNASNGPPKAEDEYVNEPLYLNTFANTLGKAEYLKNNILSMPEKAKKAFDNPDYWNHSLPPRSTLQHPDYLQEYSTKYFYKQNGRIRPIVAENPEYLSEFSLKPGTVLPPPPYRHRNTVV

activity against PIM1 (in words) (PIM1)	activity against FLT3 (in words) (FLT3)	activity against KIT (in words) (cKIT)	activity against PDGFRα (in words) (PDGFRa)	Compound	further results
highly potent inhibitors	did not exhibit any significant activity	did not exhibit any significant activity	did not exhibit any significant activity	CN1CCC2(CC1)NC(=O)c1c(c3ccc(Cl)c(Cl)c3n1C)C2C#N (racemic) [Compound 17, (4′RS)-7′,8′-Dichloro-1,9′-dimethyl-1′-oxo-1′,2′,4′,9′-tetrahydrospiro[piperidine-4,3′-pyrido[3,4-b]indole]-4′-carbonitrile]	–
highly potent inhibitors	–	–	–	CCN1CCC2(CC1)NC(=O)c1c(c3ccc(Cl)c(Cl)c3n1C)C2C#N (racemic) [Compound 18, (4′RS)-7′,8′-Dichloro-1-ethyl-9′-methyl-1′-oxo-1′,2′,4′,9′-tetrahydrospiro[piperidine-4,3′-pyrido[3,4-b]indole]-4′-carbonitrile]	–
did not exhibit any inhibitory potency	–	–	–	Cn1c2c(c3ccc(Cl)c(Cl)c31)C(C#N)C1(CCN(C(=O)OC(C)(C)C)CC1)NC2=O (racemic) [Compound 19, (4′RS)-tert-Butyl 7′,8′-Dichloro-4′-cyano-9′-methyl-1′-oxo-1′,2′,4′,9′-tetrahydrospiro[piperidine-4,3′-pyrido[3,4-b]indole]-1-carboxylate]	–
highly potent inhibitors	did not exhibit any significant activity	did not exhibit any significant activity	did not exhibit any significant activity	Cn1c2c(c3ccc(Cl)c(Cl)c31)C(C#N)C1(CCNCC1)NC2=O (racemic) [Compound 20, (4′RS)-7′,8′-Dichloro-9′-methyl-1′-oxo-1′,2′,4′,9′-tetrahydrospiro[piperidine-4,3′-pyrido[3,4-b]indole]-4′-carbonitrile]	IC50 (HER4): > 10 µM; IC50 (PKA): < 0.1 µM; IC50 (PDK1v2): > 10 µM; IC50 (CaMK2): < 0.1 µM; phosphorylation of 4E-BP1 [1]: dose-dependent decrease; IC50 (BTKv2): > 10 µM
complete loss of activity	–	–	–	(4RS)-N-[(7,8-Dichloro-3,3-dimethyl-1-oxo-2,3,4,9-tetrahydro-1H-pyrido[3,4-b]indol-4-yl)methyl]acetamide [Compound 24]	–
